This is an account of results in PubChem BioAssay (NCI).

What all share (test): NCI-60 cell line screen, 48 h
Assay [1] has as its system 786-0 renal.
Assay [2] concerns CCRF-CEM leukemia.
Assay [3] relates to COLO 205 colon.
For assay [4], the system named is DMS 273 small cell lung.
Assay [5] relates to HCC-2998 colon.
The test system of assay [6] is HL-60(TB) leukemia.
Assay [7] concerns HOP-92 NSCLC.
In assay [8] the test system is IGROV1 ovarian.
Assay [9] deals with KM12 colon.
Assay [10] relates to MOLT-4 leukemia.
The subject of assay [11] is NCI-H23 lung.
The test system of assay [12] is OVCAR-8 ovarian.
The test system of assay [13] is RPMI-8226 leukemia.
Assay [14] has as its system SF-268 CNS.
Assay [15] concerns SK-MEL-2 melanoma.
For assay [16], the system named is SK-MEL-5 melanoma.
For assay [17], the system named is SN12C renal.
For assay [18], the system named is SNB-19 CNS.
Assay [19] concerns M14 melanoma.
Assay [20] deals with NCI/ADR-RES ovarian.

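Assay format: 96-well plates, 48-hour exposure. TGI marks complete inhibition of growth.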

In the case of `O=C(CCN1CCC(CCO)CC1)Nc1ccc2c(c1)C(=O)c1ccc(NC(=O)CCN3CCC(CCO)CC3)cc1C2=O`, the TGI in [1] is 27.2 µM; in [2] it was 42.5 µM; in assay [3], 64.6 µM; in assay [4], 19.8 µM; in assay [5], 88.7 µM; in assay [6] it was over 100 µM. The TGI is over 100 µM in [7]; over 100 µM in assay [8]; 10.5 µM in assay [9]; 24.5 µM in assay [10]; over 100 µM in [11]; 61.6 µM in assay [12]. The TGI was 88.1 µM in assay [13]; 45.7 µM in assay [14]; 13.6 µM in assay [15]; over 100 µM in assay [16]; over 100 µM in [17]; 68.8 µM in assay [18].
On to `CN(C)CCN(C)C(=O)C1CCCN1C(=O)OCc1ccccc1` (stereo not given), for which the TGI in assay [1] was over 100 µM; in [2], 48.7 µM; in assay [3], over 100 µM; in assay [4], over 100 µM; in [5], over 100 µM; in assay [6], over 100 µM. The TGI in assay [7], in assay [8], in assay [19], in assay [10], in assay [11] and in assay [12] was over 100 µM throughout. Also, the TGI in [13], in [14], in assay [15], in assay [16], in assay [17] and in assay [18] was over 100 µM in each case.
For the compound `CN(C)CC1CCCCCCCCCCCCC(CN(C)C)C1=O` (stereo not given), the TGI in assay [1] is 21.7 µM; in assay [3], 27.6 µM; in [4], 22.9 µM; in [5], 22.2 µM; in [7] it was 26.3 µM; in [8] it was 33.1 µM. In addition, the TGI in [9] was found to be 24 µM; in [19] it was 25.9 µM; in assay [10] it was 20.8 µM; in [11] it was 32 µM; in assay [12], 22.4 µM; in assay [14], 26 µM. Besides, the TGI turned out to be 26 µM in assay [15], 27.8 µM in [16], 29.4 µM in [17] and 31.6 µM in assay [18].
Consider `CC1=NC=C(O)c2ccccc2O1`, for which the TGI in assay [1], in assay [2], in assay [3], in [4], in assay [5] and in assay [6] was over 100 µM throughout. In addition, the TGI in [7], in assay [8], in assay [9], in assay [19], in assay [10] and in [11] was over 100 µM throughout. In addition, the TGI in [12], in assay [13], in assay [14], in assay [15], in [17] and in assay [18] was over 100 µM throughout.
Consider `CC(=O)Oc1c(Br)ccc2cc(C(Br)Br)c(C(=O)c3ccccc3)nc12`, for which the TGI in assay [1] is 46.9 µM; in [3], 52.7 µM; in assay [4], 42.3 µM; in assay [5], 32.6 µM; in [8], 76.5 µM; in assay [9] it was 37.1 µM. Moreover, the TGI in [19] is 40.8 µM; in assay [10], 46.2 µM; in assay [11] it was 37.5 µM; in assay [12], 53 µM; in [14] it was 53.5 µM; in assay [15], 48.2 µM. For the same compound, the TGI in assay [16] is 38.7 µM; in [17], 45.6 µM; in [18], 39.1 µM.
As for `CCOC(=O)/C(=C/c1ccccc1Br)P(=O)(OCC)OCC`, the TGI in [1] is 2.66 µM; in assay [2], 3.16 µM; in assay [4] it was 3.04 µM; in assay [5], 3.24 µM; in assay [6], 1.94 µM; in assay [7], 3.45 µM. Further, the TGI in assay [8] was found to be 10.1 µM; in assay [9], 4.52 µM; in assay [19] it was 2.95 µM; in assay [10], 5.35 µM; in assay [11], 4.09 µM; in [12] it was 8.09 µM. Also, the TGI in assay [13] turned out to be 3.36 µM; in assay [14], 10.5 µM; in [15], 3.7 µM; in assay [16], 3.51 µM; in assay [17], 5.76 µM; in [18], 6.21 µM.
Consider `O=P(CCOc1ccccc1OCCP(=O)(c1ccccc1)c1ccc2c(c1)OCCOCCOCCOCCO2)(c1ccccc1)c1ccc2c(c1)OCCOCCOCCOCCO2` (stereo not given), for which the TGI in assay [1], in [2], in assay [3], in assay [4], in assay [5] and in [6] was over 100 µM throughout. Moreover, the TGI in assay [7], in assay [8], in assay [19], in [10], in assay [11] and in assay [12] was over 100 µM each time. In addition, the TGI in [13], in assay [14], in [15], in assay [16], in assay [17] and in assay [18] was over 100 µM throughout.
Regarding `COc1ccccc1N1C(=O)CSC1c1cc(OC)c(OC)c(OC)c1` (stereo not given), the TGI in assay [1] is over 100 µM; in assay [2] it was 76.6 µM; in assay [3], over 100 µM; in assay [5] it was over 100 µM; in [6], 97.7 µM; in [7], over 100 µM. The TGI in assay [8], in assay [9], in [19], in assay [10], in [11] and in [20] was over 100 µM each time. Besides, the TGI in [12], in assay [13], in assay [14], in assay [15], in assay [16] and in assay [17] was over 100 µM throughout. The TGI in assay [18] was over 20.8 µM.
Consider `CCOC(=O)C1(C#N)C(C#N)(C#N)C1(C#N)C#N`, for which the TGI in assay [1], in assay [2], in assay [3], in [5], in assay [6] and in assay [7] was over 100 µM in each case. For the same compound, the TGI in assay [8], in assay [9], in [19], in assay [10], in assay [11] and in [20] was over 100 µM throughout. The TGI in assay [12], in assay [13], in [14], in assay [15], in assay [16] and in assay [17] was over 100 µM each time. This compound also registered a TGI in assay [18] of over 100 µM.
With `Cc1ccc(C(=O)N2CCCCC2)cc1N=NN(C)C`, the TGI in assay [1], in assay [2], in assay [3], in assay [4], in [5] and in assay [6] was over 100 µM each time. Also, the TGI in assay [8], in [9], in [19], in assay [10], in [11] and in [12] was over 100 µM each time. Besides, the TGI in assay [13], in [14], in assay [15], in assay [16], in [17] and in assay [18] was over 100 µM throughout.
`Cc1cccc2c1c(=O)c1c(O)cc3c(c1n2C)C=CC(C)(C)O3`: the TGI in assay [1], in assay [2], in assay [3], in assay [5], in assay [6] and in assay [7] was over 100 µM each time. Also, the TGI in assay [8], in [9], in [19], in assay [10], in [11] and in assay [20] was over 100 µM in each case. The TGI in [12], in assay [13], in assay [14], in assay [15], in assay [16] and in [17] was over 100 µM in each case. This compound also came in with a TGI in assay [18] of over 100 µM.
As for `Cc1cc(C)c(S(=O)(=O)N(CCCN)OCCON(CCCN)S(=O)(=O)c2c(C)cc(C)cc2C)c(C)c1`, the TGI was 13.1 µM in [1]; over 24.9 µM in [2]; over 100 µM in [3]; 4.24 µM in assay [5]; over 21.9 µM in [6]; over 21.6 µM in assay [7]. In addition, the TGI is 4.67 µM in [8]; 4.49 µM in [9]; over 100 µM in assay [19]; over 100 µM in assay [10]; 7.11 µM in assay [11]; 46.6 µM in [20]. Further, the TGI in assay [12] is 47.7 µM; in assay [13], 6.33 µM; in assay [14], 5.37 µM; in assay [15] it was 3.24 µM; in assay [16], over 100 µM; in assay [17], over 100 µM. This compound gave a TGI in assay [18] of 4.37 µM.
As for `CC[C@@H]1CC[C@@H]2[C@H](CC[C@]3(C)[C@@H](OC(C)=O)CC[C@@H]23)[C@H]1C(=O)OC`, the TGI in assay [1] is 47.3 µM; in assay [2] it was 47.9 µM; in assay [3], 29.5 µM; in assay [5], over 100 µM; in [6], 31.3 µM; in [7], 37.3 µM. Also, the TGI is 89.8 µM in assay [8]; 52.1 µM in assay [9]; 42.3 µM in assay [19]; 42 µM in assay [10]; 59.6 µM in assay [11]; 68.5 µM in assay [20]. The TGI is 76.9 µM in [12]; 46.5 µM in [13]; 81.1 µM in assay [14]; 39.2 µM in assay [15]; 27.7 µM in [16]; 69.9 µM in assay [17]. The compound also showed a TGI in [18] of 72.4 µM.
As for `C=C1CC(C)(COc2cc(=O)oc3ccccc23)OC1=O` (stereo not given), the TGI was 11.8 µM in [1]; 5.08 µM in [2]; 5.81 µM in [3]; 42.9 µM in [5]; 4.83 µM in assay [6]; 3.54 µM in assay [7]. For the same compound, the TGI in [8] is 12.5 µM; in [9] it was 27.3 µM; in assay [19] it was 2.95 µM; in assay [10], 7.15 µM; in assay [11] it was 11.4 µM; in assay [20], 24 µM. The TGI in [12] was determined as 24.2 µM; in assay [13] it was 4.18 µM; in [14], 40.5 µM; in [15] it was 11.8 µM; in assay [16] it was 14.7 µM; in assay [17] it was 21.4 µM. Also, the TGI in assay [18] came out at 35.5 µM.
With `CC(C)(CN1CCCCC1)C(=O)CC(SCCN)c1ccc(Cl)cc1` (stereo not given), the TGI worked out at 3.21 µM in assay [1]; 5.19 µM in [2]; 3.24 µM in [3]; 4.96 µM in assay [4]; 3.76 µM in [5]; 8.48 µM in [8]. The TGI in assay [9] turned out to be 5.23 µM; in assay [19], 3.63 µM; in assay [10], 4.72 µM; in [11], 5.8 µM; in [12], 5.45 µM; in assay [13], 3.86 µM. Moreover, the TGI in assay [14] was 9.36 µM; in assay [15], 3.32 µM; in assay [16], 3.25 µM; in [17], 3.42 µM; in assay [18], 4.54 µM.
